Test results from ChEMBL document CHEMBL1201862, “PubChem BioAssay data set” (2004).
Activity calls are given as the source filed them.

Tests used:
[1] = target: T1, G-protein coupled receptor 55 (Homo sapiens, UniProt Q9Y2T6); experiment: GPR55 antagonists, SAR follow-up, counter-screen for GPR35 antagonist project, imaging, image-based (AID 2397); assay type: functional
Vero = experiment: host cell cytotoxicity of antiviral hits, dose response, cytotoxicity control for West Nile virus antiviral project, secondary assay (AID 1650); assay type: functional; settings: Chlorocebus sabaeus
[2] = target: T2, Replicative DNA helicase DnaB (Mycobacterium tuberculosis, UniProt P9WMR3); experiment: DnaB intein splicing inhibitors, dose response, biochemical, cell-free fluorescence (AID 449749); assay type: functional
T2 sequence (P9WMR3 whole entry): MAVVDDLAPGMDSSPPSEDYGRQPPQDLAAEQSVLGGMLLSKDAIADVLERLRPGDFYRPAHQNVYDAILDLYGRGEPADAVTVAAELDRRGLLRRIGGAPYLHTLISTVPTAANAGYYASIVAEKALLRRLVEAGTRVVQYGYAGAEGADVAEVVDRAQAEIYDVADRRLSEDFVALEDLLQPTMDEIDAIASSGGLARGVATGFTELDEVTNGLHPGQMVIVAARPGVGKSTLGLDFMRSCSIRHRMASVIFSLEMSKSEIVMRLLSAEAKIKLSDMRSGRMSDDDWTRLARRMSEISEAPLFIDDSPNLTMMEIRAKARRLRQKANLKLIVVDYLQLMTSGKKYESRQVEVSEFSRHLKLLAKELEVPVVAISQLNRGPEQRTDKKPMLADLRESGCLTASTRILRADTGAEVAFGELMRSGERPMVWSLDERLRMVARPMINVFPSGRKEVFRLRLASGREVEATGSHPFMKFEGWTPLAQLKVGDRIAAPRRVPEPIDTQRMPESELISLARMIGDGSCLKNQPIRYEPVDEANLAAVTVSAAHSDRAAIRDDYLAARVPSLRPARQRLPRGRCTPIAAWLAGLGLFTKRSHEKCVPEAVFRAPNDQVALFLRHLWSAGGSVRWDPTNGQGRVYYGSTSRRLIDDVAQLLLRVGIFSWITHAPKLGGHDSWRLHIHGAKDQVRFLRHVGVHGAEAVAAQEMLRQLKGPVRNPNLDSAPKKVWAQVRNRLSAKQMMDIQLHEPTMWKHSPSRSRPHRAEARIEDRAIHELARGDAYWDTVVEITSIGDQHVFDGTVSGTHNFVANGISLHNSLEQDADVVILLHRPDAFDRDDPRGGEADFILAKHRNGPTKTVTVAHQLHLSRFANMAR

Protein RecA = target: T3, Protein RecA (Mycobacterium tuberculosis, UniProt P9WHJ3); experiment: Fluorescence Cell-Free Homogeneous Dose Retest to Identify Inhibitors of RecA-Intein Splicing Activity. [Related pubchem assays (depositor defined):AID2097, AID2223, AID489010, AID492950]; assay type: functional
T3 sequence (P9WHJ3 whole entry): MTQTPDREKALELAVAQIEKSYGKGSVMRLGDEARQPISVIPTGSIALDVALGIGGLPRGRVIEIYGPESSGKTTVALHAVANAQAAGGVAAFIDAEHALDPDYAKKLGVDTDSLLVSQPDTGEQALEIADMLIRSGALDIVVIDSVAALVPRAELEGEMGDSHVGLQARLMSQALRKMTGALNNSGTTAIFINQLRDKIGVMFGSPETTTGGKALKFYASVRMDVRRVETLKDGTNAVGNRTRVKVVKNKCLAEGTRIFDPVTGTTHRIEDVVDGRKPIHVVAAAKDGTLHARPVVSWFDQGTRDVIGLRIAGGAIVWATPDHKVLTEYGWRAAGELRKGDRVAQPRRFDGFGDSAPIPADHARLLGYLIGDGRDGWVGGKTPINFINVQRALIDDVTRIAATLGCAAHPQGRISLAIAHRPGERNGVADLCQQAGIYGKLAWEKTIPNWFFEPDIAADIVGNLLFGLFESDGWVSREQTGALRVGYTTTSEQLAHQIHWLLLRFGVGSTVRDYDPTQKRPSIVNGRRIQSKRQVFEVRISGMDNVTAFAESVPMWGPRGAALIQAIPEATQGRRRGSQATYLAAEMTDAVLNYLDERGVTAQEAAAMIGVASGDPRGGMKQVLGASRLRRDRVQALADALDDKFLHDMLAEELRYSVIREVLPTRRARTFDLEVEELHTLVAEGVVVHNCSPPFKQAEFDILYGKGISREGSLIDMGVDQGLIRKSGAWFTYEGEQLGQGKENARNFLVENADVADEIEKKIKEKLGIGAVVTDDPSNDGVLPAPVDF

Cannabinoid receptor 2 [3] = target: T4, Cannabinoid receptor 2 (Homo sapiens, UniProt P34972); experiment: SAR analysis of antagonists of the Cannabinoid Receptor 2 using an Image-Based Assay - Set 2. [Related pubchem assays (depositor defined):AID1961, AID1965]; assay type: functional
Cannabinoid receptor 1 = Cannabinoid receptor 1 (Homo sapiens, UniProt P21554); experiment: SAR analysis of antagonists of the Cannabinoid Receptor 1 using an Image-Based Assay. [Related pubchem assays (depositor defined):AID1961, AID1965]; assay type: functional
[4] = target: T1, G-protein coupled receptor 55; experiment: GPR55 agonists via beta-arrestin recruitment, primary screen, imaging, U2OS cells, beta-arrestin-GFP redistribution (AID 1961); assay type: functional
[5] = target: T1, G-protein coupled receptor 55; experiment: SAR analysis of selective Agonists of GPR55 using an Image-Based Assay. [Related pubchem assays (depositor defined):AID1961, AID1965]; assay type: functional
Cannabinoid receptor 2 [6] = target: T4, Cannabinoid receptor 2; experiment: SAR analysis of agonists of the Cannabinoid Receptor 2 using an Image-Based Assay - Set 2. [Related pubchem assays (depositor defined):AID1961, AID1965]; assay type: functional
Tumor necrosis factor = Tumor necrosis factor (Homo sapiens, UniProt P01375); experiment: TNFa-triggered NF-kB activation inhibitors, SAR follow-up, cell-based, set 3 (AID 2801); assay type: functional
[7] = target: Nucleotide-binding oligomerization domain-containing protein 1 (Homo sapiens, UniProt Q9Y239); experiment: SAR analysis of compounds that inhibit NOD1 - Set 3. [Related pubchem assays (depositor defined):AID1566, AID1575, AID1578, AID1849, AID1852, AID2333, AID2335, AID2466]; assay type: functional
HEK293 = experiment: SAR analysis of compounds that are cytotoxic to HEK293 - Set 3. [Related pubchem assays (depositor defined):AID1575, AID1578, AID1848, AID1849, AID2001, AID2333, AID2334, AID2335, AID2337, AID2469]; assay type: functional, cell-based; settings: Homo sapiens
Bcl-2-related protein A1 [8] = target: T5, Bcl-2-related protein A1 (Mus musculus, UniProt Q07440); experiment: Bfl-1 binding inhibitors, SAR follow-up, biochemical, fluorescence polarization (AID 1070)
T5 sequence (Q07440 whole entry): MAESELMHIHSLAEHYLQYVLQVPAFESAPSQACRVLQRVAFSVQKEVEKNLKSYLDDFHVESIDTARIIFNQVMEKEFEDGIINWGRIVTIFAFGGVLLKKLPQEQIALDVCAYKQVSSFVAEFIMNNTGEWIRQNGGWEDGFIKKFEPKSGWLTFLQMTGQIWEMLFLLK

Bcl-2-related protein A1 [9] = target: T5, Bcl-2-related protein A1; experiment: Bfl-1 inhibitors blocking BH3 peptide binding, confirmation, biochemical, TR-FRET, mouse Bfl-1 (AID 621);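 note: TR-FRET binding of GST-Bfl-1 to FITC-labelled Bid peptide via terbium antibody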
[10] = target: Nucleotide-binding oligomerization domain-containing protein 2 (Homo sapiens, UniProt Q9HC29); experiment: NOD2 signaling inhibitors, analog potency, SAR follow-up, cell-based, set 3 (AID 2799); assay type: functional
[11] = target: Glyceraldehyde-3-phosphate dehydrogenase (Homo sapiens, UniProt P04406)
[12] = HepG2 cell cytotoxicity, dose response, cytotoxicity control, plate reader, cherry-pick, antagonist series (AID 743416); assay type: functional, cell-based
[13] = A549 cell cytotoxicity, dose response, cytotoxicity control, plate reader, cherry-pick, antagonist series (AID 743412); assay type: functional, cell-based
[14] = Luminescence Cell-Based Dose Retest to Confirm Inhibitors of Cancer Stem Cells. [Related pubchem assays (depositor defined):AID2717, AID2721]; assay type: functional; settings: Homo sapiens
[15] = MC4R antagonists, dose response, counter-screen for LGR2 antagonist project, cell-based, plate reader, cherry pick (AID 743444); assay type: functional;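 note: transfected HEK 293 cells stimulated with alpha-MSH peptide; potency of inhibitors of the alpha-MSH evoked signal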
[16] = (§1) Late stage assay provider results from the probe development effort to identify inhibitors of Protein Phosphatase Methylesterase 1 (PME-1): luminescence-based […] dose response assay to determine cytotoxicity of inhibitor compounds. [Related pubchem assays (depositor defined):AID2130, AID2143, AID2171, AID2174, AID2177, AID2232, AID2233, AID2291, AID2363, AID2365, AID2366, AID2368, AID2369, AID2371, AID463124, AID463130, AID463131, AID463132, AID463146, AID463149] Panel member name: Serum-free Media; assay type: toxicity
[17] = LGR2 antagonists, dose response, cell-based, HEK293, CRE-luciferase reporter, cherry pick, set 2 (AID 743343); assay type: functional;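 note: transfected cells were stimulated with diluted bursicon conditioned medium after compound addition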
[18] = as §1, with “Fetal Calf Serum” for “Serum-free Media”; assay type: toxicity
[19] = HEK293 cell cytotoxicity, dose response, cytotoxicity control, plate reader, cherry-picked samples (AID 743446); assay type: functional, cell-based
[20] = target: Voltage-dependent T-type calcium channel subunit alpha-1H (Homo sapiens, UniProt O95180); experiment: Cav3.2 T-type channel blockers, cell-based, SynthLib3 library, HEK293 Cav3.2, fluorescence (AID 493041); assay type: functional
Sequence of Voltage-dependent T-type calcium channel subunit alpha-1H (O95180 whole entry): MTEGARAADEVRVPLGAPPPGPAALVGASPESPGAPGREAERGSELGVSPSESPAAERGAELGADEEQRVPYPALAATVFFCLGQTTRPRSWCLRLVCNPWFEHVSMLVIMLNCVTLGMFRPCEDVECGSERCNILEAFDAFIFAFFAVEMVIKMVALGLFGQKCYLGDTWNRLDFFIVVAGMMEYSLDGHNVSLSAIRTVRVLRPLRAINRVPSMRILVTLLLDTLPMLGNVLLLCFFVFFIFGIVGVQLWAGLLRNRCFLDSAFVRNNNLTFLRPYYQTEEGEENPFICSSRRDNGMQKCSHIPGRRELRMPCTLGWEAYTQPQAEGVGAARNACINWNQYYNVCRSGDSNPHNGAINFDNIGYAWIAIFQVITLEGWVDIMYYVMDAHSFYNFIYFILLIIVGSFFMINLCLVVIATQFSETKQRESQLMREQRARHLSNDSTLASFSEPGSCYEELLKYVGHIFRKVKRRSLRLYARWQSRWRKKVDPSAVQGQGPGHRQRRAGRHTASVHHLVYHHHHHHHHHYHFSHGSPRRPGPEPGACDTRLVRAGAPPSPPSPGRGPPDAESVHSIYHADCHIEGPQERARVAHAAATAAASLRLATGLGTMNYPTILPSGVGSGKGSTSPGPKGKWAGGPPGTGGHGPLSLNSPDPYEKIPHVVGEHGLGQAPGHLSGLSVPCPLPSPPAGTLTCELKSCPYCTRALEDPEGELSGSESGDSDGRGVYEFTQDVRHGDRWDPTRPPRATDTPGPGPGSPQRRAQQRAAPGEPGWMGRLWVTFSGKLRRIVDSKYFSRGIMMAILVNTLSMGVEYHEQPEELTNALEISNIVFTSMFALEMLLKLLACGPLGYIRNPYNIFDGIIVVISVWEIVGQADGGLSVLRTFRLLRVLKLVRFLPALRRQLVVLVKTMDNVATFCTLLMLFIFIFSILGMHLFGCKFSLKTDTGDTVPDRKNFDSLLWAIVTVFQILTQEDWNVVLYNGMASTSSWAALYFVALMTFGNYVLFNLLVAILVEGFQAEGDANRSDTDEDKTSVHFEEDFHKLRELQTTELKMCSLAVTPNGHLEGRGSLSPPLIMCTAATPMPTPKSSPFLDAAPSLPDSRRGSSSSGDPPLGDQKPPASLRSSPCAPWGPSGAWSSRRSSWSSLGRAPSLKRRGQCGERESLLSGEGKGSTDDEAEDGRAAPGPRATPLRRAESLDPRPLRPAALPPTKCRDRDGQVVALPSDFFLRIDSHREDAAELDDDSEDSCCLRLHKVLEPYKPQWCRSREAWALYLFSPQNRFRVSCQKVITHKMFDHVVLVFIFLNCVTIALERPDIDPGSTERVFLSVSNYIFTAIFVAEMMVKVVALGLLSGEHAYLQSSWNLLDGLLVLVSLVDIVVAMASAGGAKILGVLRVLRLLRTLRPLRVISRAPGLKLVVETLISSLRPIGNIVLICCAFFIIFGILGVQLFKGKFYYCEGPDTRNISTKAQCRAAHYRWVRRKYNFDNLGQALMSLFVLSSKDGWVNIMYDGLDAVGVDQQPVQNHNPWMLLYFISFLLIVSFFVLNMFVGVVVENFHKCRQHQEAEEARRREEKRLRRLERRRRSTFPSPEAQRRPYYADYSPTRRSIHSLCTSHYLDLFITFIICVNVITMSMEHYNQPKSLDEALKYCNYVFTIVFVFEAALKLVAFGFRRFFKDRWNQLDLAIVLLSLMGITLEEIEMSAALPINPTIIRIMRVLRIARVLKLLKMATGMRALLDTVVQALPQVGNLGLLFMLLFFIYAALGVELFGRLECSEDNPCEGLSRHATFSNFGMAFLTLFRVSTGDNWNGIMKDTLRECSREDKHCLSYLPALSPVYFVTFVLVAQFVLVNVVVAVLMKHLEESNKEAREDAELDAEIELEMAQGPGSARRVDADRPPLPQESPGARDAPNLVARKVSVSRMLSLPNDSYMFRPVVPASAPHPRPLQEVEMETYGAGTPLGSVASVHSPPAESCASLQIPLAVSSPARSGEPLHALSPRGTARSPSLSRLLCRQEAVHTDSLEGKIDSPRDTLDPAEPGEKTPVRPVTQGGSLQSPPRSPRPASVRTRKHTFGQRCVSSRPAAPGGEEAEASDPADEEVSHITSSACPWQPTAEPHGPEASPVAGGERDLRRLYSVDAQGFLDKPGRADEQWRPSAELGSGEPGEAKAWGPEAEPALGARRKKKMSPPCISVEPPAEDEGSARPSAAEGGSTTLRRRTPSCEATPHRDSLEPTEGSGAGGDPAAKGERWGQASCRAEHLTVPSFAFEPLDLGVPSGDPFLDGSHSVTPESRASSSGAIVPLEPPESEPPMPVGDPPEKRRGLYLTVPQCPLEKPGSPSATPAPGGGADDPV

T1 sequence (Q9Y2T6 whole entry): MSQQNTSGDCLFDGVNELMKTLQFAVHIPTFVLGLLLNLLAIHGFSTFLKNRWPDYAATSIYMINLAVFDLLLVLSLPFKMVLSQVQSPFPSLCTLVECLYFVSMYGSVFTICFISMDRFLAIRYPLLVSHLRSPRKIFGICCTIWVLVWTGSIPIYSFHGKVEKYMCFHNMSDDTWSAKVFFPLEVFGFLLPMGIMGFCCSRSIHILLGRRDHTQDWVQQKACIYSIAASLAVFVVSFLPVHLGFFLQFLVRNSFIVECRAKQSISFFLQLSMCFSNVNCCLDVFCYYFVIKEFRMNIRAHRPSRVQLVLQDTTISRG
T4 sequence (P34972 whole entry): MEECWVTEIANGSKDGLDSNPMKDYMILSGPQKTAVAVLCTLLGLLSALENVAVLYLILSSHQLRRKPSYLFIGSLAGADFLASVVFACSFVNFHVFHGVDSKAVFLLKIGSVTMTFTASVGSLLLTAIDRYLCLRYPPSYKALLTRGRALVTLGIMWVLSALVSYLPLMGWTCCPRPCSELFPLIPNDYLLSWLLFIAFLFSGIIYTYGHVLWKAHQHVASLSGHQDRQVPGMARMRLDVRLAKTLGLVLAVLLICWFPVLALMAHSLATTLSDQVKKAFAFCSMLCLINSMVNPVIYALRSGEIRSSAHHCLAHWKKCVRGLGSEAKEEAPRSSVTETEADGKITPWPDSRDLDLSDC
Sequence of Nucleotide-binding oligomerization domain-containing protein 1 (Q9Y239 whole entry, the tested form may be a part): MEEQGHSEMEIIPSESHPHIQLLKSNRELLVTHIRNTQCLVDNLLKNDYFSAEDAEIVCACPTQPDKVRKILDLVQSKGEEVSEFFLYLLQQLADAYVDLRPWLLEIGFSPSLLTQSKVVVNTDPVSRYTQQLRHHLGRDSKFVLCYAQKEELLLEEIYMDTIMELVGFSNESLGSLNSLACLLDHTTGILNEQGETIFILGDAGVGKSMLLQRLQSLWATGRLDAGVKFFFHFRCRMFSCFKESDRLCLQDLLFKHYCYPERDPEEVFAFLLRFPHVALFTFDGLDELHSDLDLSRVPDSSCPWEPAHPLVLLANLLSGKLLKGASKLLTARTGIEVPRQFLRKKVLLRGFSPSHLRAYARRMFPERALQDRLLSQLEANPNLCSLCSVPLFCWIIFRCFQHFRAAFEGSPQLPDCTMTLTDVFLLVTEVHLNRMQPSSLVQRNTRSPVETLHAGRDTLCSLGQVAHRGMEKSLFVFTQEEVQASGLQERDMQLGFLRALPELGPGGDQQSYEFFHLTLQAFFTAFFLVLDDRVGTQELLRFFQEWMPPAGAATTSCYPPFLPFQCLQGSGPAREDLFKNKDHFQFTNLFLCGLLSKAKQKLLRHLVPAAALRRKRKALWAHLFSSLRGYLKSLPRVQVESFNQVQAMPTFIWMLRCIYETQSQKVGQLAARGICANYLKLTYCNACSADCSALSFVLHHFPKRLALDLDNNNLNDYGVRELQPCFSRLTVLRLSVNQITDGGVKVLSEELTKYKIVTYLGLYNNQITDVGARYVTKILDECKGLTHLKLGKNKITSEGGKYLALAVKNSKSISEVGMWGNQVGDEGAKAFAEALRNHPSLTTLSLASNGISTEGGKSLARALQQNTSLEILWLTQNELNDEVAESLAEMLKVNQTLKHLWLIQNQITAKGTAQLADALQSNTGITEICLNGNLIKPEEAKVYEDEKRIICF
Sequence of Tumor necrosis factor (P01375 whole entry, the tested form may be a part): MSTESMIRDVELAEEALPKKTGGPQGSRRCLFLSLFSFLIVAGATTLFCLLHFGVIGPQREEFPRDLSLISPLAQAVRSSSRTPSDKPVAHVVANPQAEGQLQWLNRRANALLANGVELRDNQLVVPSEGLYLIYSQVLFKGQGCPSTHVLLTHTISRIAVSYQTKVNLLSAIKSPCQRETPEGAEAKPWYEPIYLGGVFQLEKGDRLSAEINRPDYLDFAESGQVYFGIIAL
Sequence of Cannabinoid receptor 1 (P21554 whole entry): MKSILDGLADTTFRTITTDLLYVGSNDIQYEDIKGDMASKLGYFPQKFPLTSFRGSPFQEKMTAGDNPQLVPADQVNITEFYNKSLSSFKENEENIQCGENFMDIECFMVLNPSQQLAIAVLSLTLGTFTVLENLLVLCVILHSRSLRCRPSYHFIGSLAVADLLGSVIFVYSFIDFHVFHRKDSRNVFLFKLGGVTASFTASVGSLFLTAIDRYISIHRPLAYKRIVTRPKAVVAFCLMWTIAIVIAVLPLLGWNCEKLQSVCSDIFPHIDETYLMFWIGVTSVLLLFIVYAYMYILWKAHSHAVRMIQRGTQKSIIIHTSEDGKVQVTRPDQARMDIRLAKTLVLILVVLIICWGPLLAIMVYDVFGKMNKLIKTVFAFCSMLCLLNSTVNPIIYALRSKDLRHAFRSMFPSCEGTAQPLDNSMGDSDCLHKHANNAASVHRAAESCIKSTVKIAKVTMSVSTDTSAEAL
Sequence of Glyceraldehyde-3-phosphate dehydrogenase (P04406 whole entry): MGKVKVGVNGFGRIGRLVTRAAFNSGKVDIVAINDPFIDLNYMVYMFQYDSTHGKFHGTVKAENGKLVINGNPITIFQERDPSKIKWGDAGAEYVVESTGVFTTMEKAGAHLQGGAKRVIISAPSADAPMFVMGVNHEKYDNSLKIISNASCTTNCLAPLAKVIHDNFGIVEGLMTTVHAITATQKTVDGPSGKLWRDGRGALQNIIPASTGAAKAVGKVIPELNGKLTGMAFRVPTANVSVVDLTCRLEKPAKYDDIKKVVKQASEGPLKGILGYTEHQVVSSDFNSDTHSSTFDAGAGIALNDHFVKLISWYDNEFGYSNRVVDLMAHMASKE

## O=C(CCCN1C(=O)/C(=C/c2ccccc2)SC1=S)Nc1ccc(O)cc1
[1]
  IC50: > 32 µM (inactive)
Vero
  CC50: 60 µM (active)
[2]
  AC50: 12 µM (active)
Protein RecA
  EC50: > 380 µM (inactive)

## CC(Sc1nc2cc(Cl)ccc2s1)C(=O)Nc1cccc(S(=O)(=O)N2CCOCC2)c1 (configuration not stated)
Cannabinoid receptor 2 [3]
  IC50: > 32 µM (inactive)
Cannabinoid receptor 1
  IC50: > 32 µM (inactive)
[4]
  EC50: 961 nM (active)
[5]
  EC50: 761 nM (active)
Cannabinoid receptor 2 [6]
  EC50: > 32 µM (inactive)

## COc1ccc(-c2cc(N)n(S(=O)(=O)c3ccc(F)cc3)n2)cc1OC
Tumor necrosis factor
  IC50: > 20 µM (inactive)
[7]
  IC50: > 20 µM (inactive)
HEK293
  IC50: > 20 µM (inactive)
Bcl-2-related protein A1 [8]
  IC50: > 100 µM (not active)
Bcl-2-related protein A1 [9]
  IC50: > 100 µM (not active)
[10]
  IC50: > 20 µM (inactive)
[11]
  IC50: > 100 µM (not active)

## CCOC(=O)N1C(=O)[C@@](c2ccc(Cl)cc2)(C(C)C)N1C(=O)OCC
[12]
  AC50: 40.9 µM (active)
[13]
  AC50: 22.4 µM (active)
[14]
  AC50: 3.99 µM (active)
[15]
  AC50: 26.6 µM (active)
[16]
  CC50: > 10 µM (inactive)
[17]
  AC50: 17.3 µM (active)
[2]
  AC50: 7.28 µM (active)
[18]
  CC50: > 10 µM (inactive)
[19]
  AC50: 49.1 µM (active)
Protein RecA
  EC50: 16.2 µM (active)

## CC(C)CCc1nnc(NC(=O)COc2ccc(F)cc2Cl)o1
[20]
  EC50: 10 µM (active)
